Tests used:
[1] = test system: mustard beetle (Phaedon cochleariae); experiment: Phaedon test (PHAECO spray treatment), Example 7; assay type: in vivo; conditions: application rate 20 g/ha, china cabbage leaf discs sprayed, after 7 days
Protocol: Phaedon Test (PHAECO Spray Treatment)
(§1) • Solvent: 78.0 parts by weight of acetone • 1.5 parts by weight of dimethylformamide • Emulsifier: 0.5 part by weight of alkylaryl polyglycol ether
To prepare an active ingredient formulation, 1 part by weight of active ingredient is mixed with the stated amounts of solvent and emulsifier, and the concentrate is diluted with emulsifier-containing water to the desired concentration. Leaf discs from china cabbage (Brassica pekinensis) are sprayed with an active ingredient formulation of the desired concentration and, after drying, populated with larvae of the mustard beetle (Phaedon cochleariae).
After 7 days, the efficacy in % is determined. 100% means that all beetle larvae were killed; 0% means that no beetle larvae were killed.

[2] = test system: red spider mite (Tetranychus urticae); experiment: Tetranychus test, OP-resistant (TETRUR spray treatment), Example 8; assay type: in vivo; conditions: application rate 20 g/ha, common bean leaf discs sprayed, after 6 days
Protocol: Tetranychus Test, OP-resistant (TETRUR Spray Treatment)
as §1
To prepare an active ingredient formulation, 1 part by weight of active ingredient is mixed with the stated amounts of solvent and emulsifier, and the concentrate is diluted with emulsifier-containing water to the desired concentration.
Leaf discs from the common bean (Phaseolus vulgaris) infested by all stages of the red spider mite (Tetranychus urticae) are sprayed with an active ingredient formulation of the desired concentration.
After 6 days, the efficacy in % is determined. 100% means that all spider mites were killed; 0% means that no spider mites were killed.

[3] = logP by HPLC on reverse-phase column (EEC Directive 79/831 Annex V.A8); assay type: physicochemical; conditions: HPLC-MS
Protocol: The logP values reported in the above Tables and Preparation Examples were determined according to EEC Directive 79/831 Annex V.A8 by HPLC (High Performance Liquid Chromatography) on a reverse-phase column (C18). Temperature 43° C.

[4] = test system: Boophilus microplus; experiment: Boophilus microplus test (BOOPMI injection), Example 11; assay type: in vivo; conditions: application rate 20 μg/animal, injected into abdomen, after 7 days
Protocol: Boophilus microplus Test (BOOPMI Injection) • Solvent: dimethyl sulphoxide To prepare an appropriate active ingredient formulation, 10 mg of active ingredient are mixed with 0.5 ml of solvent and the concentrate is diluted with solvent to the desired concentration. The active ingredient solution is injected into the abdomen (Boophilus microplus), and the animals are transferred to dishes and stored in a climate-controlled room. The efficacy was assessed by the number of fertile eggs laid. After 7 days, the efficacy in % is determined. 100% means that none of the ticks has laid any fertile eggs.

[5] = test system: green peach aphid (Myzus persicae); experiment: Myzus test (MYZUPE spray treatment), Example 17; assay type: in vivo; conditions: china cabbage leaf discs sprayed, after 6 days
Protocol: Myzus Test (MYZUPE Spray Treatment)
• Solvent: 78 parts by weight of acetone • 1.5 parts by weight of dimethylformamide • Emulsifier: 0.5 part by weight of alkylaryl polyglycol ether
To prepare an appropriate active ingredient formulation, 1 part by weight of active ingredient is mixed with the stated amounts of solvent and emulsifier, and the concentrate is diluted with emulsifier-containing water to the desired concentration. Leaf discs from china cabbage (Brassica pekinensis) infested by all stages of the green peach aphid (Myzus persicae) are sprayed with an active ingredient formulation of the desired concentration.
After 6 days, the efficacy in % is determined. 100% means that all aphids were killed; 0% means that no aphids were killed.

[6] = test system: armyworm (Spodoptera frugiperda); experiment: Spodoptera frugiperda test (SPODFR spray treatment), Example 15; assay type: in vivo; conditions: application rate 100 g/ha, maize leaf discs sprayed, after 7 days
Method in brief: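 Caterpillars placed on dried, sprayed Zea mays leaf discs; formulation of acetone, dimethylformamide and emulsifier diluted with emulsifier-containing water to test concentration. Percent kill scored on day 7.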

## O=C(/C=C/c1ccc(C(=O)NCc2ccnc(Cl)c2)c(C(F)(F)F)c1)NC(c1cccc(C(F)(F)F)c1)C(F)(F)F (stereo not shown) [Ia-66]
[1]
  efficacy in %: 100%
[2]
  efficacy in %: 90%
[3]
  logP: HPLC-MS: logP = 3.41; mass

## COCC(C)NC(=O)c1ccc(/C=C/C(=O)NC(c2cccc(C(F)(F)F)c2)C(F)(F)F)cc1Cl (stereo not shown) [Ia-164]
[4]
  efficacy in % (fertile eggs laid): 100%
[5]; application rate 100 g/ha
  efficacy in %: 100%
[3]
  logP: HPLC-MS: logP = 3.33; mass

## O=C(/C=C/c1ccc(C(=O)NCc2cccnc2)c(C(F)(F)F)c1)NC(c1cccc(C(F)(F)F)c1)C(F)(F)F (stereo not shown) [Ia-50]
[2]
  efficacy in %: 100%
[3]
  logP: HPLC-MS: logP = 2.23; mass

## CCOC1(NC(=O)c2ccc(/C=C/C(=O)NC(c3cccc(C(F)(F)F)c3)C(F)(F)F)cc2Cl)CC1 (stereo not shown) [Ia-96]
[1]
  efficacy in %: 100%
[2]
  efficacy in %: 80%
[3]
  logP: HPLC-MS: logP = 3.47 mass

## O=C(/C=C/c1ccc(C(=O)NCc2ccccn2)c(C(F)(F)F)c1)NC(c1cccc(C(F)(F)F)c1)C(F)(F)F (stereo not shown) [Ia-36]
[2]
  efficacy in %: 100%
[4]
  efficacy in % (fertile eggs laid): 100%
[3]
  logP: HPLC-MS: logP = 2.75; mass

## O=C(/C=C/c1ccc(C(=O)NCc2ccccn2)c(Cl)c1)NC(c1cccc(C(F)(F)F)c1)C(F)(F)F (stereo not shown) [Ia-21]
[1]
  efficacy in %: 100%
[4]
  efficacy in % (fertile eggs laid): 100%
[5]; application rate 500 g/ha
  efficacy in %: 100%
[3]
  logP: HPLC-MS: logP = 2.75; mass

## O=C(/C=C/c1ccc(C(=O)NC2CC2F)c(C(F)(F)F)c1)NC(c1cccc(C(F)(F)F)c1)C(F)(F)F (stereo not shown) [Ia-65]
[1]
  efficacy in %: 100%
[2]
  efficacy in %: 90%
[3]
  logP: HPLC-MS: logP = 3.33; mass

## O=C(/C=C/c1ccc(C(=O)NC(CF)CF)c(C(F)(F)F)c1)NC(c1cccc(C(F)(F)F)c1)C(F)(F)F (stereo not shown) [Ia-143]
[4]
  efficacy in % (fertile eggs laid): 100%
[6]
  efficacy in %: 100%
[5]; application rate 100 g/ha
  efficacy in %: 100%
[3]
  logP: HPLC-MS: logP = 3.48; mass

## CCOC1(NC(=O)c2ccc(/C=C/C(=O)NC(c3cccc(C(F)(F)F)c3)C(F)(F)F)cc2C(F)(F)F)CC1 (stereo not shown) [Ia-68]
[1]
  efficacy in %: 100%
[2]
  efficacy in %: 100%
[3]
  logP: HPLC-MS: logP = 3.52; mass

## O=C(/C=C/c1ccc(C(=O)Nc2ccc(F)cc2)c(C(F)(F)F)c1)NC(c1cccc(C(F)(F)F)c1)C(F)(F)F (stereo not shown) [Ia-48]
[1]
  efficacy in %: 100%
[2]
  efficacy in %: 90%
[3]
  logP: HPLC-MS: logP = 3.89; mass

## O=C(/C=C/c1ccc(C(=O)Nc2ccccn2)c(Br)c1)NC(c1cccc(C(F)(F)F)c1)C(F)(F)F (stereo not shown) [Ia-92]
[1]
  efficacy in %: 100%
[2]
  efficacy in %: 80%
[3]
  logP: HPLC-MS: logP = 3.47 mass

## O=C(/C=C/c1ccc(C(=O)NCc2ccccc2F)c(C(F)(F)F)c1)NC(c1cccc(C(F)(F)F)c1)C(F)(F)F (stereo not shown) [Ia-74]
[1]
  efficacy in %: 100%
[2]
  efficacy in %: 90%
[3]
  logP: HPLC-MS: logP = 3.77; mass

## O=C(/C=C/c1ccc(C(=O)NCC2CCCO2)c(C(F)(F)F)c1)NC(c1cccc(C(F)(F)F)c1)C(F)(F)F (stereo not shown) [Ia-52]
[2]
  efficacy in %: 100%
[3]
  logP: HPLC-MS: logP = 3.27; mass

## O=C(/C=C/c1ccc(C(=O)Nc2ccncc2)c(Cl)c1)NC(c1cccc(C(F)(F)F)c1)C(F)(F)F (stereo not shown) [Ia-113]
[1]
  efficacy in %: 100%
[2]
  efficacy in %: 100%
[3]
  logP: HPLC-MS: logP = 1.92 mass

## COC(CNC(=O)c1ccc(/C=C/C(=O)NC(c2cccc(C(F)(F)F)c2)C(F)(F)F)cc1C(F)(F)F)OC (stereo not shown) [Ia-51]
[1]
  efficacy in %: 100%
[2]
  efficacy in %: 90%
[3]
  logP: HPLC-MS: logP = 3.18; mass

## CC(C)NC(=O)c1ccc(/C=C/C(=O)NC(c2cccc(C(F)(F)F)c2)C(F)(F)F)cc1Cl (stereo not shown) [Ia-150]
[4]
  efficacy in % (fertile eggs laid): 100%
[5]; application rate 100 g/ha
  efficacy in %: 100%
[3]
  logP: HPLC-MS: logP = 3.5; mass

## Cc1cc(/C=C/C(=O)NC(c2cccc(C(F)(F)F)c2)C(F)(F)F)ccc1C(=O)Nc1ccc(F)cc1 (stereo not shown) [Ia-99]
[1]
  efficacy in %: 100%
[2]
  efficacy in %: 80%
[3]
  logP: HPLC-MS: logP = 3.78 mass

## O=C(/C=C/c1ccc(C(=O)NCc2ncccn2)c(Cl)c1)NC(c1cccc(C(F)(F)F)c1)C(F)(F)F (stereo not shown) [Ia-153]
[4]
  efficacy in % (fertile eggs laid): 100%
[5]; application rate 100 g/ha
  efficacy in %: 100%
[3]
  logP: HPLC-MS: logP = 2.94; mass

## CN(C(=O)c1ccc(/C=C/C(=O)NC(c2cccc(C(F)(F)F)c2)C(F)(F)F)cc1Br)C1CC1 (stereo not shown) [Ia-95]
[1]
  efficacy in %: 100%
[2]
  efficacy in %: 80%
[3]
  logP: HPLC-MS: logP = 3.58 mass

## O=C(/C=C/c1ccc(C(=O)NCc2ncccn2)c(C(F)(F)F)c1)NC(c1cccc(C(F)(F)F)c1)C(F)(F)F (stereo not shown) [Ia-127]
[4]
  efficacy in % (fertile eggs laid): 100%
[6]
  efficacy in %: 100%
[5]; application rate 100 g/ha
  efficacy in %: 90%
[3]
  logP: HPLC-MS: logP = 3.05; mass

## O=C(/C=C/c1ccc(C(=O)N(C2CCOCC2)C2CC2)c(C(F)(F)F)c1)NC(c1cccc(C(F)(F)F)c1)C(F)(F)F (stereo not shown) [Ia-67]
[1]
  efficacy in %: 100%
[5]; application rate 500 g/ha
  efficacy in %: 90%
[3]
  logP: HPLC-MS: logP = 3.77; mass

## O=C(/C=C/c1ccc(C(=O)NC2CCOC2=O)c(C(F)(F)F)c1)NC(c1cccc(C(F)(F)F)c1)C(F)(F)F (stereo not shown) [Ia-136]
[4]
  efficacy in % (fertile eggs laid): 100%
[5]; application rate 100 g/ha
  efficacy in %: 100%

## C#CC(C)NC(=O)c1ccc(/C=C/C(=O)NC(c2cccc(C(F)(F)F)c2)C(F)(F)F)cc1C(F)(F)F (stereo not shown) [Ia-138]
[4]
  efficacy in % (fertile eggs laid): 100%
[6]
  efficacy in %: 100%
[5]; application rate 100 g/ha
  efficacy in %: 80%
[3]
  logP: HPLC-MS: logP = 3.58; mass

## O=C(/C=C/c1ccc(C(=O)NCc2ccc(F)cn2)c(Br)c1)NC(c1cccc(C(F)(F)F)c1)C(F)(F)F (stereo not shown) [Ia-90]
[1]
  efficacy in %: 100%
[2]
  efficacy in %: 80%
[3]
  logP: HPLC-MS: logP = 3.23 mass

## CC(NC(=O)c1ccc(/C=C/C(=O)NC(c2cccc(C(F)(F)F)c2)C(F)(F)F)cc1Cl)c1ccccn1 (stereo not shown) [Ia-154]
[4]
  efficacy in % (fertile eggs laid): 100%
[5]; application rate 100 g/ha
  efficacy in %: 90%
[3]
  logP: HPLC-MS: logP = 3.45; mass

## O=C(/C=C/c1ccc(C(=O)NCc2ccncc2)c(C(F)(F)F)c1)NC(c1cccc(C(F)(F)F)c1)C(F)(F)F (stereo not shown) [Ia-49]
[2]
  efficacy in %: 90%
[3]
  logP: HPLC-MS: logP = 2; mass

## COC(=O)C(C)NC(=O)c1ccc(/C=C/C(=O)NC(c2cccc(C(F)(F)F)c2)C(F)(F)F)cc1C(F)(F)F (stereo not shown) [Ia-132]
[4]
  efficacy in % (fertile eggs laid): 100%
[5]; application rate 100 g/ha
  efficacy in %: 80%
[3]
  logP: HPLC-MS: logP = 3.47; mass

## O=C(/C=C/c1ccc(C(=O)NCC(F)F)c(Cl)c1)NC(c1cccc(C(F)(F)F)c1)C(F)(F)F (stereo not shown) [Ia-156]
[4]
  efficacy in % (fertile eggs laid): 100%
[6]
  efficacy in %: 100%
[5]; application rate 100 g/ha
  efficacy in %: 100%
[3]
  logP: HPLC-MS: logP = 3.34; mass

Reference: US8889878B2, “Haloalky-substituted amides as insecticides and acaricides” (Bayer CropScience AG, priority 2009, dated 2014)
